We go through two molecules from patent US9937235B2, “Lipidated peptides as anti-obesity agents” (USTAV ORGANICKE CHEMIE A BIOCHEMIE AKADEMIE VED CR, V.V.I, priority 2012, dated 2018).

The test system of experiment [1] is Fos immunoreactivity in Arc, PVN and NTS. The experiment can be described thus: Fos immunohistochemistry after SC administration. Particulars: 90 minutes after SC 5 mg/kg, fasted mice. It counts as in vivo, mouse. On the procedure: For Fos immunohistochemical processing, overnight fasted mice (n=5 mice/group) were treated SC with saline, [Dpr^1]PrRP31, [Dpr(oct)^1]PrRP31, [Dpr(myr)^1]PrRP31 or [Dpr(palm)^1]PrRP31 (dose 5 mg/kg). Ninety minutes after SC injection, the mice were deeply anesthetized with pentobarbital (50 mg/kg, IP) and perfused transcardially with 0.1 M phosphate buffer (PB, pH 7.4) containing 4% paraformaldehyde, 0.1% glutaraldehyde, and 10% picric acid (w/w). Then the brains were removed, postfixed in the same fixative overnight at 4° C., and infiltrated with 30% sucrose in 0.1 M PB for 48 h at 4° C. Before sectioning, the brains were rapidly (20 sec) frozen in cold isopentane (−30/−40° C.) and placed into a Reichert cryocut device adjusted to −16° C. for 1 h. 30 μm coronal sections were cut from the brains and collected as free floating in cold (4° C.) PB. […]
An identical set of mice was used for determination of Fos immunoreactivity in NTS, PVN, and Arc. […] Quantitative assessment was performed from the images captured with a Canon digital camera (PowerShot S40) and Leica DMLS light microscope in a computer screen obtained from 5-6 brain sections per animal. […] The counting of Fos-positive neurons was done under blinded conditions (the counted slides from each animal were analyzed independently and randomly and encoded by other person).

The subject of experiment [2] is MAPK/ERK1/2 signaling pathway in RC-4B/C cells. The experiment is described as follows: MAPK/ERK1/2 signaling in RC-4B/C cells (Western blot). Type of experiment: cell-based, rat. Particulars: 10^−6 mol·l^−1, 5 minute incubation. (In general: In western blotting, separated proteins are transferred to a membrane and probed.)

Where a SMILES comes first, the peptide text is derived from it. [ ]: non-standard residue; d: D form. The star is where a group is joined. Palmitoyl = CCCCCCCCCCCCCCCC(=O)*; Myristoyl = CCCCCCCCCCCCCC(=O)*; Nle = CCCC[C@H](N)C(=O)O; Dap = NC[C@H](N)C(=O)O

With `CCCCCCCCCCCCCC(=O)NC[C@H](N)C(=O)N[C@@H](CCCNC(=N)N)C(=O)N[C@@H](C)C(=O)N[C@@H](Cc1c[nH]cn1)C(=O)N[C@@H](CCC(N)=O)C(=O)N[C@@H](Cc1c[nH]cn1)C(=O)N[C@@H](CO)C(=O)N[C@@H](CCCC)C(=O)N[C@@H](CCC(=O)O)C(=O)N[C@H](C(=O)N[C@@H](CCCNC(=N)N)C(=O)N[C@H](C(=O)N1CCC[C@H]1C(=O)N[C@@H](CC(=O)O)C(=O)N[C@H](C(=O)N[C@@H](CC(N)=O)C(=O)N1CCC[C@H]1C(=O)N[C@@H](C)C(=O)N[C@@H](Cc1c[nH]c2ccccc12)C(=O)N[C@@H](Cc1ccc(O)cc1)C(=O)N[C@H](C(=O)NCC(=O)N[C@@H](CCCNC(=N)N)C(=O)NCC(=O)N[C@H](C(=O)N[C@@H](CCCNC(=N)N)C(=O)N1CCC[C@H]1C(=O)N[C@H](C(=O)NCC(=O)N[C@@H](CCCNC(=N)N)C(=O)N[C@@H](Cc1ccccc1)C(N)=O)C(C)C)[C@@H](C)CC)[C@@H](C)O)[C@@H](C)CC)[C@@H](C)O)[C@@H](C)O` [Analog 5] (H-[Dap](Myristoyl)RAHQHS[Nle]ETRTPDINPAWYTGRGIRPVGRF-NH2), the “Neural activity, Fos immunoreactivity” value in experiment [1] is listed as “significantly increased”. For the same molecule, the ERK signaling result in experiment [2] is “agonist”.
As to `CCCCCCCCCCCCCCCC(=O)NC[C@H](N)C(=O)N[C@@H](CCCNC(=N)N)C(=O)N[C@@H](C)C(=O)N[C@@H](Cc1c[nH]cn1)C(=O)N[C@@H](CCC(N)=O)C(=O)N[C@@H](Cc1c[nH]cn1)C(=O)N[C@@H](CO)C(=O)N[C@@H](CCCC)C(=O)N[C@@H](CCC(=O)O)C(=O)N[C@H](C(=O)N[C@@H](CCCNC(=N)N)C(=O)N[C@H](C(=O)N1CCC[C@H]1C(=O)N[C@@H](CC(=O)O)C(=O)N[C@H](C(=O)N[C@@H](CC(N)=O)C(=O)N1CCC[C@H]1C(=O)N[C@@H](C)C(=O)N[C@@H](Cc1c[nH]c2ccccc12)C(=O)N[C@@H](Cc1ccc(O)cc1)C(=O)N[C@H](C(=O)NCC(=O)N[C@@H](CCCNC(=N)N)C(=O)NCC(=O)N[C@H](C(=O)N[C@@H](CCCNC(=N)N)C(=O)N1CCC[C@H]1C(=O)N[C@H](C(=O)NCC(=O)N[C@@H](CCCNC(=N)N)C(=O)N[C@@H](Cc1ccccc1)C(N)=O)C(C)C)[C@@H](C)CC)[C@@H](C)O)[C@@H](C)CC)[C@@H](C)O)[C@@H](C)O` [Analog 6] (H-[Dap](Palmitoyl)RAHQHS[Nle]ETRTPDINPAWYTGRGIRPVGRF-NH2), the “Neural activity, Fos immunoreactivity” value in experiment [1] was “significantly increased”. For the same molecule, the ERK signaling entry in experiment [2] was “agonist”.
